Where a name gives a salt, the structure may show the parent alone.
Target: T1, recombinant guanylate cyclase reporter cell line (Rattus norvegicus, UniProt P19686+P20595)
T1 construct: expressed in transfected cells
T1 sequence (P20595 1-619): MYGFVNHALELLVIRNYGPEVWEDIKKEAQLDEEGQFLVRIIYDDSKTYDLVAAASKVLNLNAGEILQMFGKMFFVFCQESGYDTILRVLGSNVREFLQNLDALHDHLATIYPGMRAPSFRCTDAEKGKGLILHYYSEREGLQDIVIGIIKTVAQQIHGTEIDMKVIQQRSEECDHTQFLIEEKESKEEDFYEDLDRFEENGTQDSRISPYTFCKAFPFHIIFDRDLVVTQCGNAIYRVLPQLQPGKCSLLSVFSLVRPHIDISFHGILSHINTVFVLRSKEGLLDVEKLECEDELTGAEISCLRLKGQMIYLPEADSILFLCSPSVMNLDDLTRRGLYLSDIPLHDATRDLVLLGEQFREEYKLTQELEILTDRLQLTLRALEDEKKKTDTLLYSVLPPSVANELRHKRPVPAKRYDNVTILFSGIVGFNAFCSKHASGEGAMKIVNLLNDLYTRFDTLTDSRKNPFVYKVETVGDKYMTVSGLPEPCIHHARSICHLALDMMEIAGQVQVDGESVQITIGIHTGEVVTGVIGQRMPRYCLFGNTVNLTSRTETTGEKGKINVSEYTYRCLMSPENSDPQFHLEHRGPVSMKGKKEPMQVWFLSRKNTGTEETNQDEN
T1 sequence (P19686 1-690): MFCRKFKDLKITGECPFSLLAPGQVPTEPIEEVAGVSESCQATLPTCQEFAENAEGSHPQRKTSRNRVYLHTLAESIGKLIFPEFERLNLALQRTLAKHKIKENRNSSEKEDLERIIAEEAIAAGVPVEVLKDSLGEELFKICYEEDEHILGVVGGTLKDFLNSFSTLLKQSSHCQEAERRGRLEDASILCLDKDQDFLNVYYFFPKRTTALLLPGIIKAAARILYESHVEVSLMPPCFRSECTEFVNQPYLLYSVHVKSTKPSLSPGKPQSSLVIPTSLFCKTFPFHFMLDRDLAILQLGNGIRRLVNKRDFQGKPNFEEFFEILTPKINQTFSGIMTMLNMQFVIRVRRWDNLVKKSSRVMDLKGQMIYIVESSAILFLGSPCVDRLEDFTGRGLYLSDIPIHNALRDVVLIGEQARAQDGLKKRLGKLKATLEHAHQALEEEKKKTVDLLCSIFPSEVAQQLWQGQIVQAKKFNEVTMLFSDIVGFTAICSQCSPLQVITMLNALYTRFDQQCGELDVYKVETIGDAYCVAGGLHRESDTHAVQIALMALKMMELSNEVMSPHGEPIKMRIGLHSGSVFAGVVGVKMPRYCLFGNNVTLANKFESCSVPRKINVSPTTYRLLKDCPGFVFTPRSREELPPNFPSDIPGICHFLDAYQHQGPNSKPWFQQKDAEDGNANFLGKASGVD
Assay: Action on recombinant guanylate cyclase reporter cell line
Type: cell-based
Conditions: in some cases mean values obtained from individual determinations
Summary of the method: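 Cell-based reporter assay with recombinant guanylate cyclase expressed in a reporter cell line, per a published method. Activity reported as minimal effective concentration (MEC), in some cases as the mean of individual determinations.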

Row | SMILES | MEC (minimal effective concentration) [µM]
1 | Cc1nc2c(OCc3c(F)cccc3F)cccn2c1C(=O)N[C@@H](CO)CCO [Example 129, 8-[(2,6-difluorobenzyl)oxy]-N-[(2R)-1,4-dihydroxybutan-2-yl]-2-methylimidazo[1,2-a]pyridine-3-carboxamide] | 3.0
2 | Cc1nc2c(OCc3c(F)cccc3F)cccn2c1C(=O)N[C@@H](CO)CCCO [Example 130, 8-[(2,6-difluorobenzyl)oxy]-N-[(2R)-1,5-dihydroxypentan-2-yl]-2-methylimidazo[1,2-a]pyridine-3-carboxamide] | 1.0
3 | CCCC[C@H](CO)NC(=O)c1c(C)nc2c(OCc3c(F)cccc3F)cc(Cl)cn12 [Example 131, 6-chloro-8-[(2,6-difluorobenzyl)oxy]-N-[(2R)-1-hydroxyhexan-2-yl]-2-methylimidazo[1,2-a]pyridine-3-carboxamide] | 0.01
4 | CCCC[C@H](CO)NC(=O)c1c(C)nc2c(OCc3c(F)cccc3F)cc(F)cn12 [Example 132, 8-[(2,6-difluorobenzyl)oxy]-6-fluoro-N-[(2R)-1-hydroxyhexan-2-yl]-2-methylimidazo[1,2-a]pyridine-3-carboxamide] | 0.03
5 | CCCC[C@H](CO)NC(=O)c1c(C)nc2c(OCc3c(F)cccc3F)cc(C)cn12 [Example 133, 8-[(2,6-difluorobenzyl)oxy]-N-[(2R)-1-hydroxyhexan-2-yl]-2,6-dimethylimidazo[1,2-a]pyridine-3-carboxamide] | 0.01
6 | Cc1nc2c(OCc3c(F)cccc3F)cccn2c1C(=O)N[C@@H](CO)CC[C@@H](O)C(F)(F)F [Example 135, 8-[(2,6-difluorobenzyl)oxy]-2-methyl-N-[(2R,5R)-6,6,6-trifluoro-1,5-dihydroxyhexan-2-yl]imidazo[1,2-a]pyridine-3-carboxamide trifluoroacetate (1:1)] | 0.1
7 | Cc1nc2c(OCc3c(F)cccc3F)cccn2c1C(=O)NCC(O)COc1ccc(F)cc1 (stereo not shown) [Example 136, 8-[(2,6-difluorobenzyl)oxy]-N-[3-(4-fluorophenoxy)-2-hydroxypropyl]-2-methylimidazo[1,2-a]pyridine-3-carboxamide] | 3.0
8 | Cc1nc2c(OCc3c(F)cccc3F)cccn2c1C(=O)NCC(O)COc1ccccc1 (stereo not shown) [Example 137, 8-[(2,6-difluorobenzyl)oxy]-N-(2-hydroxy-3-phenoxypropyl)-2-methylimidazo[1,2-a]-pyridine-3-carboxamide] | 3.0
9 | CCCC[C@@H](NC(=O)c1c(C)nc2c(OCc3c(F)cccc3F)cccn12)C(C)O (stereo partly drawn) [Example 139, 8-[(2,6-Difluorobenzyl)oxy]-N-[(3R)-2-hydroxyheptan-3-yl]-2-methylimidazo[1,2-a]pyridine-3-carboxamide] | 0.03
10 | CCCC[C@@H](NC(=O)c1c(C)nc2c(OCc3c(F)cccc3F)cccn12)C(C)O (stereo partly drawn) [Example 140, 8-[(2,6-Difluorobenzyl)oxy]-N-[(3R)-2-hydroxyheptan-3-yl]-2-methylimidazo[1,2-a]pyridine-3-carboxamide] | 0.03
11 | CCCC[C@@H](NC(=O)c1c(C)nc2c(OCc3c(F)cccc3F)cccn12)C(O)C(F)(F)F (stereo partly drawn) [Example 141, 8-[(2,6-Difluorobenzyl)oxy]-2-methyl-N-[(3R)-1,1,1-trifluoro-2-hydroxyheptan-3-yl]imidazo[1,2-a]pyridine-3-carboxamide] | 0.1
12 | CCCC[C@@H](NC(=O)c1c(C)nc2c(OCc3c(F)cccc3F)cccn12)C(O)C(F)(F)F (stereo partly drawn) [Example 142, 8-[(2,6-Difluorobenzyl)oxy]-2-methyl-N-[(3R)-1,1,1-trifluoro-2-hydroxyheptan-3-yl]imidazo[1,2-a]pyridine-3-carboxamide] | 0.1
13 | CCCC[C@@H](NC(=O)c1c(C)nc2c(OCc3c(F)cccc3F)cccn12)C(C)(C)O [Example 147, 8-[(2,6-Difluorobenzyl)oxy]-N-[(3R)-2-hydroxy-2-methylheptan-3-yl]-2-methylimidazo[1,2-a]-pyridine-3-carboxamide] | 0.1
14 | Cc1nc2c(OCc3c(F)cccc3F)cccn2c1C(=O)NCCC(C)(C)O [Example 153, 8-[(2,6-difluorobenzyl)oxy]-N-(3-hydroxy-3-methylbutyl)-2-methylimidazo[1,2-a]pyridine-3-carboxamide] | 0.3
15 | CCCC[C@H](CO)NC(=O)c1c(C)nc2c(OCc3c(F)cccc3F)cc(C#N)cn12 [Example 157, 6-Cyano-8-[(2,6-difluorobenzyl)oxy]-N-[(2R)-1-hydroxyhexan-2-yl]-2-methylimidazo[1,2-a]-pyridine-3-carboxamide] | 0.065
16 | CCCC[C@H](CO)NC(=O)c1c(C)nc2c(OCCC(C)C)cccn12 [Example 159, N-[(2R)-1-Hydroxyhexan-2-yl]-2-methyl-8-(3-methylbutoxy)imidazo[1,2-a]pyridine-3-carboxamide] | 1.0
17 | COC(=O)[C@H](CO)NC(=O)c1c(C)nc2c(OCc3c(F)cccc3F)cccn12 [Example 164, Methyl N-({8-[(2,6-difluorobenzyl)oxy]-2-methylimidazo[1,2-a]pyridin-3-yl}carbonyl)-L-serinate] | 0.2
18 | Cc1nc2c(OCc3c(F)cccc3F)cccn2c1C(=O)N[C@@H](CO)C(C)(C)O [Example 165, 8-[(2,6-Difluorobenzyl)oxy]-N-[(2S)-3-dihydroxy-3-methylbutan-2-yl]-2-methylimidazo[1,2-a]-pyridine-3-carboxamide] | 1.0
19 | CCCC[C@H](CO)NC(=O)c1c(C)nc2c(OCCC(C)C)cc(C)cn12 [Example 166, N-[(2R)-1-Hydroxyhexan-2-yl]-2,6-dimethyl-8-(3-methylbutoxy)imidazo[1,2-a]pyridine-3-carboxamide] | 1.0
20 | CCCC[C@H](CO)NC(=O)c1c(C)nc2c(OCCC(C(F)(F)F)C(F)(F)F)cc(C)cn12 [Example 169, N-[(2R)-1-Hydroxyhexan-2-yl]-2,6-dimethyl-8-[4,4,4-trifluoro-3-(trifluoromethyl)butoxy]imidazo-[1,2-a]pyridine-3-carboxamide] | 0.3
21 | Cc1cc(OCCC(C(F)(F)F)C(F)(F)F)c2nc(C)c(C(=O)NC3c4ccccc4CC3O)n2c1 (stereo not shown) [Example 172, N-(2-Hydroxy-2,3-dihydro-1H-inden-1-yl)-2,6-dimethyl-8-[4,4,4-trifluoro-3-(trifluoromethyl)-butoxy]imidazo[1,2-a]pyridine-3-carboxamide] | 1.0
22 | Cc1cc(OCCC(C(F)(F)F)C(F)(F)F)c2nc(C)c(C(=O)NC3CCCC3O)n2c1 (stereo not shown) [Example 173, N-(2-hydroxycyclopentyl)-2,6-dimethyl-8-[4,4,4-trifluoro-3-(trifluoromethyl)butoxy]imidazo[1,2-a]pyridine-3-carboxamide] | 3.0

Reference: patent US8946215B2, “Hydroxy-substituted imidazo[1,2-a]pyridinecarboxamides and their use” (Bayer Pharma Aktiengesellschaft, priority 2012, dated 2015)
